Results from US11147801B2, “Methods of use for trisubstituted benzotriazole derivatives as dihydroorotate oxygenase inhibitors” (Aurigene Discovery Technologies Limited, priority 2017, dated 2021).

Columns and labels:
SKNO-1 = test: Heme line growth assay (Cell-Titer Glo), 4-day and extended 7-day; assay type: cell-based, human
Method: (§1) A follow-up screen was performed on an expanded panel of cell lines of heme lineage in a 4-day growth assay. Growth was assessed by Cell-Titer Glo measurements on day 0 and day 4.
(§2) Compound 1, of which diffuse large B cell lymphoma (DLBCL) lines were particularly sensitive (8/11 or 73%). A subset of the heme lines that were of intermediate sensitivity (defined as >50% and <75% growth rate inhibition) or insensitive (defined as <50% growth rate inhibition) to compound 1 in this follow-up screen were subjected to extended growth assays to evaluate if increased treatment time modulated their sensitivity profile. Specifically, these heme lines were pretreated with Compound 1 for three days at the indicated concentrations and then re-plated for a standard 4-day growth assay in fresh media/drug.

Kasumi-3 = test: as above; assay type: cell-based, human
Method: as §1, §2

Kasumi-6 = test: as above; assay type: cell-based, human
Method: as §1, §2

GDM-1 = test: as above; assay type: cell-based, human
Method: as §1, §2

HCC1143 = test: Triple negative breast cancer cell line panel, 96 hours; assay type: cell-based, human; settings: HCC1143, 96 hours
Excerpt: (§3) A panel of triple negative cancer cell lines (TNBC) were screened to evaluate whether a subset of TNBC could potentially benefit from treatment with compound 1 as a single agent.

HCC38 = test: as above; assay type: cell-based, human; settings: HCC38, 96 hours
Excerpt: as §3

BTS49 = test: as above; assay type: cell-based, human; settings: BTS49, 96 hours
Excerpt: as §3

HCC1806 = test: as above; assay type: cell-based, human; settings: HCC1806, 96 hours
Excerpt: as §3

OCILY18 = test: Double-hit DLBCL 96-hr growth assay; assay type: cell-based, human
Method: (§4) FIG. 8 is a curve showing the relative growth rate of OCILY18, SC-1 and CARNAVAL double hit diffuse large B cell lymphoma (DLBCL) cell lines treated with various concentrations of Compound 1 for 96 hours.

SC-1 = test: Double-hit DLBCL 96-hr growth assay; assay type: cell-based, human; settings: SC-1, double-hit DLBCL
Method: as §4

CARNAVAL = test: Double-hit DLBCL 96-hr growth assay; assay type: cell-based, human
Method: as §4

DU4475 [1] = test: Triple negative breast cancer cell line panel, 96 hours; assay type: cell-based, human; settings: DU4475, 96 hours
Method: FIG. 10 is a curve showing the relative growth rate of the DU4475 triple negative breast cancer line treated with various concentrations of Compound 1 for 96 hours.
as §3

[2] = system: AML and DLBCL patient-derived xenograft models; test: AML and DLBCL patient-derived xenograft models (all models); assay type: in vivo, CB17 SCID mice; settings: all five AML and two DLBCL patient-derived models, 100 mg/kg BID PO
Method: A screen was next performed using a small number of mice/group to assess efficacy of Compound 1 in AML and DLBCL patient-derived xenograft models. Tumor-bearing mice (n=3/group) were treated with vehicle or Compound 1 at 100 mg/kg BID PO.

[3] = system: cell lines of heme lineage; test: Follow-up screen on expanded panel of cell lines of heme lineage, 4-day growth assay; assay type: cell-based, human
Method: as §1, §2

MV411 = test: Tumor cell line panel screen, 72 hrs; assay type: cell-based; settings: Homo sapiens, MV4-11, MV411, child acute myeloid leukemia
Method: (§5) A tumor cell line panel screen aimed at identifying tumor cell subsets that were particularly sensitive to inhibition of DHODH with Compound 1 was performed. Compound 1 is represented by the following structural formula: […]
(§6) These cell lines were treated with Compound 1 for a total of 72 hrs.
(§7) Table 1 is a list of some of the sensitive cell lines to Compound 1 along with GI50 values and max growth response. A maximum inhibition of 100 represents complete growth inhibition; a max inhibition value>100 represents cell killing.

RL = test: Tumor cell line panel screen, 72 hrs; assay type: cell-based; settings: Homo sapiens, non-Hodgkin's lymphoma
Method: as §5, §6, §7

SUDHL5 = test: Tumor cell line panel screen, 72 hrs; assay type: cell-based; settings: Homo sapiens, SU-DHL-5, SUDHL5, diffuse large B cell lymphoma
Method: as §5, §6, §7

JVM13 = test: Tumor cell line panel screen, 72 hrs; assay type: cell-based; settings: Homo sapiens, JVM13, B-prolymphocytic leukemia
Method: as §5, §6, §7

KYSE510 = test: Tumor cell line panel screen, 72 hrs; assay type: cell-based; settings: Homo sapiens, KYSE-510, KYSE510, esophageal squamous cell carcinoma
Method: as §5, §6, §7

SUDHL1 = test: Tumor cell line panel screen, 72 hrs; assay type: cell-based; settings: Homo sapiens, SU-DHL-1, SUDHL1, anaplastic large cell lymphoma
Method: as §5, §6, §7

JYSE150 = test: Tumor cell line panel screen, 72 hrs; assay type: cell-based; settings: Homo sapiens, JYSE150, esophageal squamous cell carcinoma
Method: as §5, §6, §7

DU145 = test: Tumor cell line panel screen, 72 hrs; assay type: cell-based; settings: Homo sapiens, DU-145, DU145, prostate cancer
Method: as §5, §6, §7

SR786 = test: Tumor cell line panel screen, 72 hrs; assay type: cell-based; settings: Homo sapiens, SR-786, SR786, anaplastic large cell lymphoma
Method: as §5, §6, §7

DU4475 [4] = test: Tumor cell line panel screen, 72 hrs; assay type: cell-based; settings: Homo sapiens, DU-4475, DU4475, triple negative breast cancer
Method: as §5, §6, §7

OCILY8 = test: Tumor cell line panel screen, 72 hrs; assay type: cell-based; settings: Homo sapiens, OCI-Ly8, OCILY8, diffuse large B cell lymphoma
Method: as §5, §6, §7

SUM159PT = test: Tumor cell line panel screen, 72 hrs; assay type: cell-based; settings: Homo sapiens, SUM-159-PT, triple negative breast cancer
Method: as §5, §6, §7

MINO = test: Tumor cell line panel screen, 72 hrs; assay type: cell-based; settings: Homo sapiens, mantle cell lymphoma
Method: as §5, §6, §7

MOLM13 = test: Tumor cell line panel screen, 72 hrs; assay type: cell-based; settings: Homo sapiens, MOLM-13, MOLM13, acute myeloid leukemia
Method: as §5, §6, §7

CJM = test: Tumor cell line panel screen, 72 hrs; assay type: cell-based; settings: Homo sapiens, melanoma
Method: as §5, §6, §7

## Cc1ccccc1-c1ccc(-c2cc(C(=O)O)c3c(c2)nnn3C)cc1 [Compound 1, 1-methyl-5-(2′-methyl-[1,1′-biphenyl]-4-yl)-1H-benzo[d][1,2,3]triazole-7-carboxylic Acid]
SKNO-1; SKNO-1, 3 days pretreatment then 4-day growth assay
  Sensitivity 7-day: ** (intermediate)
SKNO-1; SKNO-1, acute myeloid leukemia, 4-day growth assay
  Sensitivity 4-day: * (insensitive)
Kasumi-3; Kasumi-3, 3 days pretreatment then 4-day growth assay
  Sensitivity 7-day: * (insensitive)
Kasumi-3; Kasumi-3, acute myeloid leukemia, 4-day growth assay
  Sensitivity 4-day: * (insensitive)
Kasumi-6; Kasumi-6, 3 days pretreatment then 4-day growth assay
  Sensitivity 7-day: * (insensitive)
Kasumi-6; Kasumi-6, acute myeloid leukemia, 4-day growth assay
  Sensitivity 4-day: * (insensitive)
GDM-1; GDM-1, 3 days pretreatment then 4-day growth assay
  Sensitivity 7-day: ** (intermediate)
GDM-1; GDM-1, acute myeloid leukemia, 4-day growth assay
  Sensitivity 4-day: * (insensitive)
HCC1143
  Sensitivity: insensitive
HCC38
  Sensitivity: insensitive
BTS49
  Sensitivity: insensitive
HCC1806
  Sensitivity: insensitive
OCILY18
  Sensitivity to growth inhibition: highly sensitive
SC-1
  Sensitivity to growth inhibition: highly sensitive
CARNAVAL
  Sensitivity to growth inhibition: highly sensitive
DU4475 [1]
  Cell viability/growth: robustly impaired cell viability/growth
[2]
  Anti-tumor activity: anti-tumor activity of Compound 1 was observed
[3]; 8/11 lines
  Share of diffuse large B cell lymphoma (DLBCL) lines that were sensitive: 73%
[3]; 20/80 lines
  Share of the heme lines screened that exhibited sensitivity: 25%
MV411
  GI50: 270 nM
RL
  GI50: 80 nM
SUDHL5
  GI50: 20 nM
JVM13
  GI50: 20 nM
KYSE510
  GI50: 130 nM
SUDHL1
  GI50: 40 nM
JYSE150
  GI50: 100 nM
DU145
  GI50: 480 nM
SR786
  GI50: 50 nM
DU4475 [4]
  GI50: 100 nM
OCILY8
  GI50: 20 nM
SUM159PT
  GI50: 140 nM
MINO
  GI50: 30 nM
MOLM13
  GI50: 60 nM
CJM
  GI50: 620 nM
